Our source for the TGI values is PubChem BioAssay (NCI).

Holding throughout (assay): NCI-60 cell line screen, 48 h
The subject of test [1] is HCC-2998 colon.
Test [2] concerns K-562 leukemia.
Test [3] relates to U251 CNS.
Test [4] has as its system OVCAR-4 ovarian.
Test [5] has as its system SW-620 colon.
Test [6] concerns HOP-92 NSCLC.
The test system of test [7] is T-47D breast.
Test [8] relates to 786-0 renal.
The test system of test [9] is MDA-MB-231 breast.
Test [10] deals with SNB-19 CNS.
Test [11] has as its system OVCAR-5 ovarian.
Test [12] relates to SK-MEL-28 melanoma.
In test [13] the test system is UACC-62 melanoma.
Test [14] concerns RXF 393 renal.
Test [15] concerns MCF7 breast.
Test [16] concerns OVCAR-8 ovarian.
Test [17] has as its system IGROV1 ovarian.
The test system of test [18] is SF-295 CNS.
Test [19] has as its system ACHN renal.

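Protocol summary: plate cells (96-well), add compound at 5 concentrations, incubate 48 h, interpolate endpoints linearly. TGI: concentration producing complete growth inhibition.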

For the molecule `N=c1oc2ccc([N+](=O)[O-])cc2cc1C(=O)NCc1ccccc1`, the TGI in test [1] is over 100 µM; in test [2], over 100 µM; in test [3] it was 83 µM; in test [4], 63.5 µM; in [5], 39.5 µM; in test [6] it was 36.7 µM. The TGI in test [7] is 67.3 µM; in test [8] it was 40 µM; in test [9], 60.9 µM; in test [10], over 100 µM; in test [11], 96 µM; in [12], 35.8 µM. The TGI was 42.9 µM in test [13]; 28 µM in test [14]; over 100 µM in [15]; 33.2 µM in test [16]; 30.9 µM in [17]; over 100 µM in [18]. In [19], this molecule yielded a TGI of 31.1 µM.

Regarding `C=C(Cl)c1c(OC)cccc1OCc1ccccc1`, the TGI in [1] is over 100 µM; in test [2], over 100 µM; in [3] it was over 100 µM; in test [4], over 100 µM; in test [5], over 100 µM; in test [6], 78.9 µM. The TGI in test [7] was 95.7 µM; in [8], over 100 µM; in [9], over 100 µM; in [10], over 100 µM; in test [11], over 100 µM; in test [12] it was over 100 µM. Moreover, the TGI in test [13] was over 100 µM; in test [14], 51.9 µM; in test [15] it was over 100 µM; in test [16] it was over 100 µM; in test [17] it was over 100 µM; in [18] it was over 100 µM. This molecule came in with a TGI in test [19] of over 100 µM.

Turning to `COc1ccc(/C=C2\CCC(CNc3cc(C)on3)C2=O)cc1` (stereo not given), the TGI in test [1], in test [2], in [3], in test [4], in test [5] and in test [6] was over 100 µM in each case. In addition, the TGI in test [7] was over 91.1 µM; in test [8], over 100 µM; in [9] it was over 100 µM; in test [10] it was over 95.5 µM; in test [11] it was over 100 µM; in test [12], over 100 µM. The TGI in test [13] is over 100 µM; in [14], over 21.5 µM; in test [15], over 100 µM; in test [16], over 100 µM; in test [17], over 100 µM; in test [18] it was over 100 µM. In [19], this molecule gave a TGI of over 100 µM.

With `C=C1C(=O)OC2/C=C(\CO)C3OC3C3OC3(C)CC(OC(=O)/C(=C/C)CO)C12` (stereo not given), the TGI was over 100 µM in [1]; 65.4 µM in [2]; over 100 µM in test [3]; over 100 µM in test [4]; over 100 µM in test [5]; over 100 µM in [6]. The TGI in [7], in test [8], in [9], in test [10], in [11] and in test [12] was over 100 µM in each case. For the same molecule, the TGI in [13], in test [14], in test [15], in [16], in test [17] and in test [18] was over 100 µM each time. Also, in test [19], the TGI is over 100 µM.

For the molecule `CC1=NN(C(=O)CC(=O)Nc2ccc(C)cc2)C(=O)C1N=Nc1ccc(C(=O)O)cc1` (stereo not given), the TGI in [1], in test [2], in test [3], in [4], in test [5] and in test [6] was over 100 µM throughout. The TGI in test [7], in test [8], in test [9], in test [10], in test [11] and in [12] was over 100 µM each time. Moreover, the TGI in test [13], in test [14], in test [15], in test [16], in [17] and in test [18] was over 100 µM each time. This molecule also registered a TGI in [19] of over 100 µM.

With `CCOC(=O)C(SCCO)C(C(=O)OCC)n1cnc2c(N)ncnc21` (stereo not given), the TGI in test [1] is 30.4 µM; in test [2] it was 14.6 µM; in test [3], 20.4 µM; in test [4], over 48.3 µM; in test [5], 12.5 µM; in test [6], 13.4 µM. The TGI in test [7] was 30.8 µM; in test [8], 12.2 µM; in test [9], 32.7 µM; in [10], over 69.1 µM; in [11], 18.6 µM; in test [12], 34.3 µM. The TGI in [13] was 24.7 µM; in [14] it was 29.6 µM; in [15], 20.1 µM; in [16], 31.2 µM; in [17], 36.5 µM; in [18] it was over 100 µM. The molecule further showed a TGI in [19] of 22.4 µM.

`Cc1c(C)c2c(c(N)c1C#N)C(=O)N(CCc1ccccc1)C2=O`: the TGI in [1], in [2], in test [3], in test [4], in test [5] and in [6] was over 100 µM each time. The TGI in test [7], in test [8], in test [9], in test [10], in [11] and in test [12] was over 100 µM in each case. The TGI in test [13], in test [14], in test [15], in [16], in test [17] and in test [18] was over 100 µM throughout. In test [19], this molecule yielded a TGI of over 100 µM.

For `CC(=O)C(=[N+]=[N-])C(=O)NCC#N`, the TGI in test [1], in test [2], in test [3], in [4], in [5] and in test [6] was over 10 µM in each case. For the same molecule, the TGI in test [7], in test [8], in [9], in [10], in [11] and in test [12] was over 10 µM in each case. For the same molecule, the TGI in [13], in test [14], in test [15], in test [16], in [17] and in test [18] was over 10 µM in each case. Further, in test [19], the TGI was over 10 µM.

`COc1cccc(OC/C(N=Cc2cccnc2)=N/NC(=O)c2ccncc2)c1`: the TGI in test [1], in test [2], in [3], in test [4], in test [5] and in [6] was over 100 µM each time. Moreover, the TGI in test [7], in [8], in [9], in test [10], in [11] and in [12] was over 100 µM throughout. Besides, the TGI in test [13], in test [14], in [15], in test [16], in test [17] and in test [18] was over 100 µM in each case. Moreover, the TGI in test [19] was over 100 µM.

Turning to `O=C(c1ccccc1)c1ccc2nc3n(c2c1)C(c1c(F)cccc1F)SC3` (stereo not given), the TGI is over 52.5 µM in [1]; over 100 µM in [2]; over 63.4 µM in test [3]; over 73.6 µM in test [4]; over 100 µM in test [5]; over 100 µM in test [6]. Besides, the TGI in test [7] was 33 µM; in [8], 47.8 µM; in test [9], over 100 µM; in [10] it was over 100 µM; in [11], over 91.1 µM; in test [12] it was over 70.5 µM. The TGI is 21.3 µM in [13]; 72.8 µM in test [14]; 50.5 µM in [15]; 98.4 µM in test [16]; over 100 µM in test [17]; 13.8 µM in test [18]. The molecule further yielded a TGI in [19] of 24.8 µM.

Regarding `O=c1[nH]c(C23CC4CC(CC(C4)C2)C3)cc2c1c(=O)oc1ccccc12`, the TGI in test [1] was 19.6 µM; in test [2] it was over 35.8 µM; in [3], 7.55 µM; in test [4], 14 µM; in test [5] it was over 51.8 µM; in [6] it was 6.48 µM. Further, the TGI came out at 44.6 µM in test [7]; 3.1 µM in test [8]; 10.8 µM in [9]; 17.7 µM in test [10]; 22.8 µM in test [11]; 20.6 µM in test [12]. The TGI was over 49.8 µM in test [13]; 7.71 µM in test [14]; over 41 µM in test [15]; 15 µM in test [16]; 13 µM in test [17]; 12.9 µM in test [18]. In test [19], this molecule had a TGI of 10.6 µM.

As to `CNc1c2cccc(C)c2nc2c(C(=O)NCCN(C)C)cccc12`, the TGI in test [1] is 0.192 µM; in test [2] it was over 100 µM; in test [3], 0.651 µM; in [4] it was 0.114 µM; in test [5], 0.424 µM; in [6] it was 0.522 µM. Besides, the TGI in test [7] came out at 0.675 µM; in [8], 1.47 µM; in test [9] it was 0.274 µM; in test [10] it was 0.876 µM; in [11] it was 1.1 µM; in [12], 1.17 µM. The TGI came to 0.402 µM in test [13]; 0.413 µM in [14]; 0.96 µM in test [15]; 0.297 µM in test [16]; 10.6 µM in [17]; 0.952 µM in test [18]. Further, in [19], the TGI is 0.723 µM.

For the molecule `CCOC(=O)C1=CN/C(=C(/C)C(=O)OC)SC1C(=O)OCC` (stereo not given), the TGI in test [1] was over 100 µM; in test [2], over 31.6 µM; in test [3], over 100 µM; in test [4] it was over 100 µM; in test [5], over 100 µM; in [6], over 100 µM. The TGI in test [7], in [8], in [9], in test [10], in test [11] and in test [12] was over 100 µM throughout. Besides, the TGI in [13], in test [14], in [15], in test [16], in [17] and in [18] was over 100 µM in each case. In addition, in test [19], the TGI was over 100 µM.

As to `CN(C)c1ccc(/C=N\NC(=O)c2ccccc2Nc2ccccc2C(=O)N/N=C/c2ccc(N(C)C)cc2)cc1`, the TGI in test [1], in test [2], in [3], in test [4], in test [5] and in [6] was over 100 µM in each case. Further, the TGI is over 100 µM in test [7]; over 100 µM in [8]; 67.8 µM in [9]; over 100 µM in test [10]; over 100 µM in [11]; over 100 µM in test [12]. Further, the TGI in [13], in test [14], in [15], in test [16], in test [17] and in test [18] was over 100 µM throughout. Moreover, the TGI in test [19] was over 100 µM.

As to `O=C1NC(=O)C(Cc2ccccc2)(c2cccnc2)N1` (stereo not given), the TGI in [1], in test [2], in test [3], in test [4], in test [5] and in test [6] was over 100 µM throughout. In addition, the TGI in test [7], in test [8], in test [9], in [10], in test [11] and in test [12] was over 100 µM throughout. Further, the TGI in test [13], in test [14], in test [15], in test [16], in [17] and in test [18] was over 100 µM throughout. The TGI in test [19] is over 100 µM.
